Experimental data reported in patent US9145411B2, “Substituted amino-pyrimidine derivatives” (Asana Biosciences, LLC, priority 2012, dated 2015).

How the values were obtained:
pS6RP = assay: In vivo PK/PD study, U87MG tumor xenograft, pS6RP; details: U87MG tumor-bearing xenograft mice, 50 mg/kg po
Experimental: PC3 cells are cultured at 37° C. in a 5% CO2 incubator using Hams F12 K medium. Ten million (10^7) cells are injected subcutaneously to the right flank region of athymic male mice (Harlan, age: 6-7 weeks, weight: about 20 g). Tumor bearing mice are randomized when the tumor volume reaches about 250 mm^3 and three mice are used per each time point. Test compounds of formula (I) are typically formulated in 40% HPCD in 1×PBS, pH 7.4 or in 10% Ethanol/40% Solutol/50% 50 mM aq. methanesulfonic acid and dosed orally at 50 mg/kg single dose (dose volume—10 mL/kg). Plasma and tumor samples are collected at 0 (vehicle control animals), 1, 4 and 24 hours post dosing. Blood is drawn (retro orbital) to a tube containing 0.2% EDTA for plasma collection. […] Tumor and plasma drug concentrations are measured for PK analysis using LC-MS.
Snap frozen tumor samples are pulverized in a mortar (Belart) containing liquid nitrogen and tumor powder is stored at −80° C. until analysis. […] The detection for pAKT is based on chemiluminescence and pS6RP is based on absorbance. […]
In vivo pharmacokinetic/pharmacodynamic (PK/PD) studies were carried out in a similar manner using U87MG tumor cells (glioma cancer cell line with a PTEN null mutation) and the corresponding tumor-bearing xenograft mice, and compounds of the invention were determined to be active in this assay. […]

PC3 cells = assay: In vivo efficacy study (tumor growth suppression), PC3 xenograft; details: athymic male mice, after 14 days of dosing at 50 mg/kg qd po
Experimental: PC3 cells were cultured at 37° C. in a 5% CO2 incubator using Hams F12 K medium. Five million (5×10^6) cells were implanted subcutaneously to the right flank of athymic male mice (Harlan, age: 6-7 weeks, weight: about 20 g). Tumor bearing mice were randomized when the tumor volume reached about 100 mm^3 Ten mice were used per group. Compounds of formula (I) were typically formulated using HPCD in PBS, pH 7.4 or in 10% Ethanol/40% Solutol/50% 50 mM aq. methanesulfonic acid and dosed orally (dose volume, 10 mL/kg). Solutions of the compounds were prepared immediately before dosing the animals. A vehicle control and a reference compound were included along with test compounds.
The tumor size was measured on alternate days using Vernier® calipers. Assuming tumors to be ellipsoid, the tumor volume was calculated using the formula: V=(D×d^2)/2 • where: • V (mm^3) is tumor volume • D is longest diameter in mm • d is shortest diameter in mm.
Changes in tumor volume (Δ volumes) for each treated (T) and control (C) group were calculated by subtracting the mean tumor volume on the first day of treatment (starting day) from the mean tumor volume on the specified observation day. […]
Percentage tumor growth inhibition was calculated as [100−% T/C]. Percentage body weight change was calculated as [(Body weight on specified observation day−Body weight on starting day)/Body weight on starting day]×100. […]

PI3 kinase isoform β = PI3 kinase isoform β (Homo sapiens, UniProt P42338); assay: PI3 Kinase TR-FRET assay, isoform β; assay type: biochemical; details: read-out: inhibition of PI3 kinase isoform β, IC50
Sequence of PI3 kinase isoform β (P42338 whole entry, the tested form may be a part, canonical isoform): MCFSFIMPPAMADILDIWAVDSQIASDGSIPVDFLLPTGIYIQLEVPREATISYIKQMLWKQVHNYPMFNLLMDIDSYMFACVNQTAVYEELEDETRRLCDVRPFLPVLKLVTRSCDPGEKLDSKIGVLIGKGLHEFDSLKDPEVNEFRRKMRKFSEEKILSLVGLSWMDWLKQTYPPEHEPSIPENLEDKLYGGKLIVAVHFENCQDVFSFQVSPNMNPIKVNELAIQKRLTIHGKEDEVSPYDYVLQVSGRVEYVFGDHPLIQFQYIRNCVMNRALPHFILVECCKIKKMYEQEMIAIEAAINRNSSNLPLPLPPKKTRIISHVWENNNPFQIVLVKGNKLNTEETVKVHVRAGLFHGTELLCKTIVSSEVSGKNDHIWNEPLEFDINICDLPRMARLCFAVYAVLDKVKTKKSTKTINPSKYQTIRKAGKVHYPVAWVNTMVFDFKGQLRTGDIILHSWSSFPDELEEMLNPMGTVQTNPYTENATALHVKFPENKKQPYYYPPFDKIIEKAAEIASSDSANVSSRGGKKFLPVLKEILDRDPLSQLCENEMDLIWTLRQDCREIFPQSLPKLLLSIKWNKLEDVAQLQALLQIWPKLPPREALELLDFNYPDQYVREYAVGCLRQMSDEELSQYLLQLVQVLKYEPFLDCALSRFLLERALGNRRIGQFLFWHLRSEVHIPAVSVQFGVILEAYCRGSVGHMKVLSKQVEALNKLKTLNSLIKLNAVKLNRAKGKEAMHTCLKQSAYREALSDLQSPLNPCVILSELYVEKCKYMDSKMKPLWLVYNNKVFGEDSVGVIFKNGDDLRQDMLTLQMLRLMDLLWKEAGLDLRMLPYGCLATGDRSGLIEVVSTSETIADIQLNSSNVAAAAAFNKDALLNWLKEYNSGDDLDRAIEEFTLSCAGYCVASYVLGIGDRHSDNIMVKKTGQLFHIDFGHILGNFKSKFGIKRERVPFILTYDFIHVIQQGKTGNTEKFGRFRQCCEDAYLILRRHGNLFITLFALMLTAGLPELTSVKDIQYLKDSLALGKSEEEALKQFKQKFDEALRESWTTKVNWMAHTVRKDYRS
Sequence of PI3 kinase isoform β (P27986 whole entry partner, the tested form may be a part, canonical isoform): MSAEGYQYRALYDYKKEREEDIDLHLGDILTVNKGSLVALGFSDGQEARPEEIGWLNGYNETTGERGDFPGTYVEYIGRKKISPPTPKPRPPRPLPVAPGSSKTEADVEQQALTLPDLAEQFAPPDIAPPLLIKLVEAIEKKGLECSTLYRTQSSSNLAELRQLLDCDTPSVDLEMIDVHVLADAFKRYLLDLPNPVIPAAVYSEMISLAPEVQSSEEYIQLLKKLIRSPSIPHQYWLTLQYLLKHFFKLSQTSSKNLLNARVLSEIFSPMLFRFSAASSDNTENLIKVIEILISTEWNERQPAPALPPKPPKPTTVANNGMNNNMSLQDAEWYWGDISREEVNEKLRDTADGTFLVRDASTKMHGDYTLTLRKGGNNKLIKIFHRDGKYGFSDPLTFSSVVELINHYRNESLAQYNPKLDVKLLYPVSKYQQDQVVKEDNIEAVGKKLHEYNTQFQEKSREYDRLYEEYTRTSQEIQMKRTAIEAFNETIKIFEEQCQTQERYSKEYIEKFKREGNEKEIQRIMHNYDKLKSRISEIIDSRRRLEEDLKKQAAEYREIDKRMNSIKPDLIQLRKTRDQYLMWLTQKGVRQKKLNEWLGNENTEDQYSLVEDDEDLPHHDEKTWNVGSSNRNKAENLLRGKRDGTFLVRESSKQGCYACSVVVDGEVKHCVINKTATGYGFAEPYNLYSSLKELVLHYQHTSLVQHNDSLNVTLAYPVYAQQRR
Experimental: The ability of compounds of the invention to inhibit PI3K activity was determined in a homogeneous TR-FRET assay using a PI3K assay kit (Millipore, USA; cat #33-016) according to manufacturer's instructions. PI3-Kinases (isoforms α, β, γ and δ) catalyze the phosphorylation of phosphatidylinositol, PIP2 to PIP3 in the presence of ATP and Mg^2+. The PIP3 product is detected by displacement of biotin-PIP3 from an energy transfer complex consisting of Europium labeled anti-GST monoclonal antibody, a GST-tagged PH domain, biotinylated PIP3 and Streptavidin-APC. Excitation of Europium in the complex results in an energy transfer to the APC and a fluorescence emission at 665 nm. The PIP3 product displaces biotin-PIP3 from the complex resulting in a loss of energy transfer and thus a decrease in signal.
To test for the ability of compounds to inhibit the activity of PI3Kα (wild-type), exemplary compounds of formula (I) were dissolved in DMSO and directly distributed into 384-well plates at a volume of 0.5 μL. […] Fluorescence was measured at 615 and 665 nm upon excitation at 340 nm in a Victor™ V5 fluorometer (Perkin Elmer, USA). The fluorescence emission ratio at 665 to 615 nm, proportional to the kinase activity, was plotted against the compound concentration to generate dose-response curves and IC50 values were determined using GraphPad Prism® 5 software. […]

| Compound | suppression of pS6RP (pS6RP) | tumor growth inhibition relative to vehicle control group (PC3 cells) | IC50 (PI3 kinase isoform β) [µM] |
| --- | --- | --- | --- |
| N#CC1(C(=O)Nc2cccc(-c3cnc4c(N5CCOCC5)nc(-c5cnc(N)nc5)nc4c3)c2)CC1 [Example 61, N-(3-(2-(2-amino-pyrimidin-5-yl)-4-morpholinopyrido[3,2-d]pyrimidin-7-yl)phenyl)-1-cyanocyclopropane-carboxamide] | suppression | – | – |
| CC(=O)Nc1cccc(-c2cnc3c(N4CCOCC4)nc(-c4cnc(N)nc4)nc3c2)c1 [Example 3, N-(3-(2-(2-Aminopyrimidin-5-yl)-4-morpholinopyrido[3,2-d]pyrimidin-7-yl)-phenyl)acetamide] | suppression | more than 40% | < 0.5 |
